The values that follow come from patent US10030016B2 (Sunesis Pharmaceuticals, Inc., priority 2009, dated 2018).

Structures are written as SMILES. Counter-ions that a name gives are not always drawn. Like-named read-outs stand apart in the source and are kept apart here.

Experiment [1] relates to phospho-akt (Thr308) in PC-3 cells. Kind of experiment: Inhibition of phospho-akt (Thr308) in PC-3 cells, MSD phospho-akt 308 ELISA kit. As to conditions: 2 hours, no serum, read-out: EC50. The class given is cell-based. The method, boiled down:
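PC-3 cells were seeded overnight in growth medium with 10% FBS, then exposed to compound serially diluted threefold in serum-free medium for 2 hours. Lysates were captured overnight at 4 degrees on MSD plates and phospho-Akt Thr308 was detected electrochemiluminescently, against DMSO high and 5 μM wortmannin low controls.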

The next experiment addresses PDK1 (Homo sapiens (Human), UniProt O15530). Kind of experiment: PDK1 kinase assay (coupled PDK1/AKT/FAM-crosstide assay, IMAP fluorescence polarization). The class given is biochemical. The method in brief: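 GST-tagged PDK1 (aa 51-359, 0.75 nM) was coupled to unphosphorylated GST-AKT2 140-467-PIFtide (10 nM) and 100 nM FAM-crosstide at 40 μM ATP, in Tris pH 7.2 buffer, for 30 min at 25 °C. Crosstide phosphorylation was read by IMAP fluorescence polarization (ΔmP) and fitted with a 4-parameter curve.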
On the technique in general: In fluorescence polarisation assays a small probe gives low polarisation when free and higher when bound to something large.

Setting [2] is: Homo sapiens, inhibition of P308 Akt in PC-3 cells, MSD.
Where [3] appears, read: inhibition of phospo-PDK1 in vitro.
Where [4] appears, read: Homo sapiens, inhibition of P308 Akt in PC-3 cells using MSD.

Sequence of PDK1 (O15530 51-359): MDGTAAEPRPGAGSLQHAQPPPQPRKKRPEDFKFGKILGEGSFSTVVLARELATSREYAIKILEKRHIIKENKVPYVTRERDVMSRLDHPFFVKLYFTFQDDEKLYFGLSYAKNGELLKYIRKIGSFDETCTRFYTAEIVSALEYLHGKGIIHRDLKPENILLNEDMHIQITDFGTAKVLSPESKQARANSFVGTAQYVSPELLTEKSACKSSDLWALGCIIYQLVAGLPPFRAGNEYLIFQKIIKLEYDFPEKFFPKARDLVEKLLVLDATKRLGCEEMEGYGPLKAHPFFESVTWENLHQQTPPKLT

Regarding `N#Cc1cnc(NCc2ccc(-c3cnc4[nH]nc(N)c4c3)cc2)c(C(=O)NCc2ccc(F)c(F)c2)n1` [Example 31, 3-(4-(3-amino-1H-pyrazolo[3,4-b]pyridin-5-yl)benzylamino)-6-cyano-N-(3,4-difluorobenzyl) pyrazine-2-carboxamide], the half-maximal effective concentration (EC50) in experiment [1] (setting [2]) was less than 1 µM. At PDK1 (setting [3]), the IC50 was less than 0.1 µM.

Regarding `Nc1ncnc2ccc(-c3ccc(CNc4ncc(C(F)(F)F)cc4C(=O)NCc4ccc(F)c(F)c4)s3)cc12` [Ex. 8.12.1, 2-(((5-(4-aminoquinazolin-6-yl)thiophen-2-yl)methyl)amino)-N-(3,4-difluorobenzyl)-5-(trifluoromethyl)nicotinamide], the EC50 in experiment [1] (setting [2]) is less than 1 µM. On PDK1 (setting [3]), this molecule registered an IC50 of less than 0.1 µM.

Regarding `C[C@H](NC(=O)c1nccnc1NCc1ccc(-c2ccc3ncnc(N)c3c2)s1)c1ccc(F)cc1` [Example 3.70, 3-({[5-(4-aminoquinazolin-6-yl)thiophen-2-yl]methyl}amino)-N-[(1S)-1-(4-fluorophenyl)ethyl] pyrazine-2-carboxamide (TFA salt)], in experiment [1] (setting [2]), the EC50 lay in the range of 1 to 10 µM. The molecule also showed an IC50 at PDK1 (setting [3]) of less than 0.1 µM.

As for `C[C@H](NC(=O)c1cc(C#N)cnc1Nc1ccc(-c2cnc3[nH]nc(N)c3c2)cc1)c1ccc(F)cc1` [Example 424, (S)-2-(4-(3-amino-1H-pyrazolo[3,4-b]pyridin-5-yl)phenylamino)-5-cyano-N-(1-(4-fluorophenyl)ethyl)nicotinamide], the 50% effective concentration (EC50) in experiment [1] (setting [4]) lay in the range of 1 to 10 µM. Besides, at PDK1 (inhibition of PDK1 in vitro), the half-maximal inhibitory concentration (IC50) was less than 0.1 µM.

`Nc1ncnc2[nH]cc(-c3ccc(CNc4ncc(C(F)(F)F)cc4C(=O)NCc4ccc(F)c(F)c4)cc3)c12` [Example 330, 2-[4-(4-Amino-7H-pyrrolo [2,3-d]pyrimidin-5-yl)-benzylamino]-N-(3,4-difluoro-benzyl)-5-trifluoromethyl-nicotinamide]: in experiment [1] (setting [4]), the EC50 is less than 1 µM. Besides, at PDK1 (inhibition of PDK1 in vitro), the concentration for half-maximal inhibition (IC50) was less than 0.1 µM.

For the molecule `NCCOc1nc(-c2ccc(CNc3ncc(C(F)(F)F)cc3C(=O)Nc3ccc(F)cc3)cc2)cnc1N` [Example 166, 2-{4-[5-Amino-6-(2-amino-ethoxy)-pyrazin-2-yl]-benzylamino}-N-(4-fluoro-phenyl)-5-trifluoromethyl-nicotinamide], the EC50 in experiment [1] (setting [4]) is less than 1 µM. On PDK1 (inhibition of PDK1 in vitro), the IC50 is less than 0.1 µM.

On to `C[C@H](NC(=O)c1cc(C#N)cnc1NCC#Cc1cnc2[nH]ncc2c1)c1ccc(F)cc1` [Example 249, (S)-2-(3-(1H-pyrazolo[3,4-b]pyridin-5-yl)prop-2-ynylamino)-5-cyano-N-(1-(4-fluorophenyl)ethyl)nicotinamide], for which the EC50 in experiment [1] (setting [4]) is greater than 10 µM. The same molecule showed a 50% inhibitory concentration (IC50) at PDK1 (inhibition of PDK1 in vitro) greater than 5 µM.

Regarding `C[C@H](NC(=O)c1cc(C#N)cnc1NCc1ccc(-c2ccc(NCCO)nc2)cc1)c1ccc(F)cc1` [Example 222, 5-Cyano-N-[(S)-1-(4-fluoro-phenyl)-ethyl]-2-{4-[6-(2-hydroxy-ethylamino)-pyridin-3-yl]-benzylamino}-nicotinamide], the concentration giving a half-maximal response (EC50) in experiment [1] (setting [4]) lay within 1 to 10 µM. The same molecule showed an IC50 against PDK1 (inhibition of PDK1 in vitro) of 0.1 to 1 µM.

On to `Cn1cnc2cnc3ccc(-c4ccc(CNc5ncc(C#N)nc5C(=O)NCc5ccc(F)cc5)s4)cc3c21` [Example 3.82, 6-cyano-N-(4-fluorobenzyl)-3-(((5-(1-methyl-1H-imidazo [4,5-c]quinolin-8-yl)thiophen-2-yl)methyl)amino)pyrazine-2-carboxamide (TFA salt)], for which, in experiment [1] (setting [2]), the EC50 is less than 1 µM. On PDK1 (setting [3]), the 50% inhibitory concentration (IC50) was less than 0.1 µM.

On to `Nc1ncnc2ccc(-c3ccc(CNc4nccnc4C(=O)NCc4cc(F)c(F)c(F)c4)s3)cc12` [Example 3.71, 3-({[5-(4-aminoquinazolin-6-yl)thiophen-2-yl]methyl}amino)-N-(3,4,5-trifluorobenzyl)pyrazine-2-carboxamide (TFA salt)], for which, in experiment [1] (setting [2]), the half-maximal effective concentration (EC50) was less than 1 µM. This molecule yielded an IC50 on PDK1 (setting [3]) of less than 0.1 µM.

`C[C@H](NC(=O)c1nc(C#N)cnc1NCC1CCC(c2cn(C)c3ncnc(N)c23)CC1)c1ccc(F)c(F)c1` (stereo partly drawn) [Example 339]: the EC50 in experiment [1] (Homo sapiens, PC-3, 2 h, inhibition of P308 Akt in PC-3 cells using MSD) is greater than 10 µM. Further, the concentration for half-maximal inhibition (IC50) against PDK1 (inhibition of PDK1 in vitro) was 0.1 to 1 µM.

`C[C@H](NC(=O)c1cn(-c2ccccn2)nc1NCc1ccc(-c2ccc3ncnc(N)c3c2)s1)c1ccc(F)c(F)c1` [Ex. 11.3]: in experiment [1] (setting [2]), the EC50 was less than 1 µM. Moreover, the IC50 against PDK1 (setting [3]) is less than 0.1 µM.

Consider `C[C@H](NC(=O)c1cc(C#N)cnc1NCc1ccc(-c2ccc3ncnc(N)c3c2)s1)c1ccc(F)c(F)c1` [Example 8.8.2], for which the EC50 in experiment [1] (setting [2]) was less than 1 µM. At PDK1 (setting [3]), this molecule displayed a half-maximal inhibitory concentration (IC50) of less than 0.1 µM.

As for `CNc1ncc2cc(O[C@@H](C)CNc3ncc(C#N)cc3C(=O)N[C@@H](C)c3ccc(F)cc3)ccc2n1` [Example 253, 5-cyano-N-((S)-1-(4-fluorophenyl)ethyl)-2-((S)-2-(2-(methylamino)quinazolin-6-yloxy)propylamino)nicotinamide], the EC50 in experiment [1] (setting [4]) is greater than 10 µM. In addition, the IC50 against PDK1 (inhibition of PDK1 in vitro) fell in the range of 1 to 5 µM.

For `Cn1cc(-c2ccc(CNc3ncc(C(F)(F)F)cc3C(=O)Nc3ccc(F)cc3)cn2)c2c(N)ncnc21` [Example 56, 2-(((6-(4-amino-7-methyl-7H-pyrrolo[2,3-d]pyrimidin-5-yl)pyridin-3-yl)methyl)amino)-N-(4-fluorophenyl)-5-(trifluoromethyl)nicotinamide], the EC50 in experiment [1] (setting [4]) was less than 1 µM. This molecule returned an IC50 on PDK1 (inhibition of PDK1 in vitro) of less than 0.1 µM.

As for `C[C@H](NC(=O)c1cc(C#N)cnc1NCc1ccc(-c2cnc3[nH]ncc3c2)cc1)c1ccc(F)cc1` [Example 2.36, 5-Cyano-N-[(S)-1-(4-fluoro-phenyl)-ethyl]-2-[4-(1H-pyrazolo[3,4-]pyridin-5-yl)-benzylamino]-nicotinamide], in experiment [1] (inhibition of P308 Akt in PC-3 cells, MSD), the concentration for a half-maximal effect (EC50) was less than 1 µM. At PDK1 (setting [3]), the IC50 was less than 0.1 µM.

With `C[C@H](NC(=O)c1nccnc1NCc1ccc(-c2ccc(N)nc2)cc1)c1ccc(F)cc1` [Example 371, (S)-3-(4-(6-aminopyridin-3-yl)benzylamino)-N-(1-(4-fluorophenyl)ethyl)pyrazine-2-carboxamide], the concentration for a half-maximal effect (EC50) in experiment [1] (setting [4]) was greater than 10 µM. The IC50 at PDK1 (inhibition of PDK1 in vitro) is less than 0.1 µM.

As to `CC(C)Oc1cc(CNc2ncccc2C(=O)NCc2ccc(F)c(F)c2)cc(-c2ccc3ncnc(NC4CC4)c3c2)c1` [Example 5.5, 2-(3-(4-(cyclopropylamino)quinazolin-6-yl)-5-isopropoxy-benzylamino)-N-(3,4-difluorobenzyl)nicotinamide], the EC50 in experiment [1] (setting [2]) is greater than 10 µM. Also, at PDK1 (setting [3]), the IC50 was less than 0.1 µM.

On to `N#Cc1cnc(NCc2ccc(Oc3cc(N)ncn3)cc2)c(C(=O)NCc2ccc(F)c(F)c2)c1` [Example 314, 2-(4-(6-aminopyrimidin-4-yloxy)benzylamino)-5-cyano-N-(3,4-difluorobenzyl)nicotinamide], for which the EC50 in experiment [1] (setting [4]) was greater than 10 µM. In addition, at PDK1 (inhibition of PDK1 in vitro), the IC50 was 1 to 5 µM.

Turning to `C[C@H](NC(=O)c1cccnc1NCc1ccc(-c2ccc(N)nc2)cc1)c1ccc(F)c(F)c1` [Example 369, (S)-2-(4-(6-aminopyridin-3-yl)benzylamino)-N-(1-(3,4-difluorophenyl)ethyl) nicotinamide], the EC50 in experiment [1] (setting [4]) is 1 to 10 µM. The molecule also gave a concentration for half-maximal inhibition (IC50) on PDK1 (inhibition of PDK1 in vitro) of less than 0.1 µM.

On to `COc1ccc([C@H](COc2ccc(N)c(N)c2)Nc2ncccc2C(=O)N[C@@H](C)c2ccc(F)c(F)c2)cc1` [Example 16.6, 2-((R)-2-(3,4-diaminophenoxy)-1-(4-methoxyphenyl)ethylamino)-N-((S)-1-(3,4-difluorophenyl)ethyl)nicotinamide], for which the EC50 in experiment [1] (setting [2]) is greater than 10 µM. On PDK1 (setting [3]), this molecule came in with an IC50 greater than 5 µM.

By EC50 is commonly meant the concentration at which the effect is half-maximal. The term IC50 denotes the concentration needed to halve the response being measured.
